Experimental data published in patent US20120164104A1, “Composition and Methods of Treating Viral Infections and Viral Induced Tumors” (Chimerix, Inc., priority 2009, published 2012).
Where two headings read alike, the source gives them in different places.

Legend:
THLE-3 = assay: Cell proliferation assay (MTS or SRB), THLE-3; assay type: cell-based; conditions: Homo sapiens, THLE3, 72 h; THLE-3, Liver (Normal), SV40 large T immortalized, 3 days; read-out: IC50 (cell growth inhibition)
Protocol: (§1) In vitro cell proliferation assays were performed using a 96-well plate based MTSassay (CellTiter 96° AqueousOne Solution Cell Proliferation Assay, Promega) or SRB (Sulforhodamine-B) assay (1-3). Briefly, cells were plated in 100 μl medium on day 0 in 96-well microtiter plates (Falcon #3072). On day 1, 10 μl of serial dilutions of each compound (Nine 1:2 dilutions with a starting concentration of 100 μM; in some cases, a starting concentration of 400 μM (CMX001 or Cidofovir) or 1 μM (some standard agents)) were added in triplicates to the plates. For standard agents using DMSO as solvent, serial dilutions of DMSO with a starting concentration of 0.5% were also included as a vehicle control.
(§2) After incubation for 3 days at 37° C. in a humidified incubator, viable cells were measured either by MTS or SRB assay. […]
(§3) Next, cells were stained with 20 μL of 0.2% SRB in 1% acetic acid and incubated at room temperature for 30 minutes and unbound SRB was removed by washing 5 times with 1% acetic acid and air-dried. Finally, bound SRB stain was solubilized in 50 μL of 50 μM Tris buffer before taking an optical density measurement at 570 nm using the BioTek microplate reader. The growth inhibition data were expressed as the percentage of cell survival calculated from the background corrected absorbance. […]

HCT-116 = assay: Cell proliferation assay (MTS or SRB), HCT-116; assay type: cell-based, human; conditions: Homo sapiens, 72 h; HCT-116, Colon, 3 days; read-out: IC50 (cell growth inhibition)
Protocol: as §1
(§4) After incubation for 3 days at 37° C. in a humidified incubator, viable cells were measured either by MTS or SRB assay. For MTS assay, 20 μl of a 20:1 mixture of (3-(4,5-dimethylthiazol-2-yl)-5-(3-carboxymethoxyphenyl)-2-(4-sulfophenyl)-2H-tetrazolium, inner salt (MTS, 2 mg/ml) and an electron coupling reagent, phenazine methosulfate (PMS, 0.92 mg/ml in DPBS), was added to each well and incubated for 3 hours at 37° C. Absorbance was measured using a BioTek Synergy™ HT Multiple Detection microplate reader at 490 nm. For SRB assay, cells were fixed in situ with 50 μL of cold trichloroacetic acid (TCA, final concentration at 10% w/v) for 60 minutes. Cells were then washed 5 times with H2O and air-dried.
as §3, with “absorbance. The surviving fraction of cells was determined by dividing the mean absorbance values of the test agent-treated samples by the mean absorbance values of untreated control.” for “absorbance.”

MIA PaCa-2 = assay: Cell proliferation assay (MTS or SRB), MIA PaCa-2; assay type: cell-based; conditions: Homo sapiens, 72 h; MIA PaCa-2, Pancreatic, 3 days; read-out: IC50 (cell growth inhibition)
Protocol: as §1, §4
as §3, with “absorbance. The surviving fraction of cells was determined by dividing the mean absorbance values of the test agent-treated samples by the mean absorbance values of untreated control.” for “absorbance.”

SK-MEL-2 = assay: Cell proliferation assay (MTS or SRB), SK-MEL-2; assay type: cell-based; conditions: Homo sapiens, 72 h; SK-MEL-2, Skin (melanoma), 3 days; read-out: IC50 (cell growth inhibition)
Protocol: as §1, §4
(§5) Next, cells were stained with 20 μL of 0.2% SRB in 1% acetic acid and incubated at room temperature for 30 minutes and unbound SRB was removed by washing 5 times with 1% acetic acid and air-dried. Finally, bound SRB stain was solubilized in 50 μL of 50 μM Tris buffer before taking an optical density measurement at 570 nm using the BioTek microplate reader. The growth inhibition data were expressed as the percentage of cell survival calculated from the background corrected absorbance. The surviving fraction of cells was determined by dividing the mean absorbance values of the test agent-treated samples by the mean absorbance values of untreated control.
Raw data were acquired using a BioTek Synergy™ HT Multiple Detection microplate reader and imported into Microsoft Excel for analysis. The average signal of each treatment was calculated from the triplicates after subtracting the blank signals. The percentage survival values were calculated using the following formula: % survival=(average signal of the drug treatment/average signal of untreated controls)×100. The data were finally imported into the Prism 4 software (GraphPad Software, San Diego, Calif.) to generate the dose-activity curves using non-linear regression curve fit and to calculate the IC50 values.

DU 145 = assay: Cell proliferation assay (MTS or SRB), DU 145; assay type: cell-based; conditions: Homo sapiens, 72 h; DU 145, Prostate, 3 days; read-out: IC50 (cell growth inhibition)
Protocol: as §1, §4
as §5, with “control. […]” for “control.”

SW 780 = assay: Cell proliferation assay (MTS or SRB), SW 780; assay type: cell-based; conditions: Homo sapiens, SW780, 72 h; SW 780, Bladder, 3 days; read-out: IC50 (cell growth inhibition)
Protocol: as §1, §4
as §5, with “control. […]” for “control.”

OVCAR-3 = assay: Cell proliferation assay (MTS or SRB), OVCAR-3; assay type: cell-based, human; conditions: Homo sapiens, 72 h; OVCAR-3, Ovarian, 3 days; read-out: IC50 (cell growth inhibition)
Protocol: as §1, §4
as §5, with “control. […]” for “control.”

Het-1A = assay: Cell proliferation assay (MTS or SRB), Het-1A; assay type: cell-based; conditions: Homo sapiens, 72 h, Esophagus (Normal), SV40 large T immortalized, 3 days, read-out: IC50 (cell growth inhibition)
Protocol: as §1, §2, §3

C33A = assay: Cell proliferation assay (MTS or SRB), C33A; assay type: cell-based, human; conditions: Homo sapiens, C-33-A, 72 h, Cervical, 3 days, read-out: IC50 (cell growth inhibition)
Protocol: as §1, §4
as §5, with “control. […]” for “control.”

Hep G2 = assay: Cell proliferation assay (MTS or SRB), Hep G2; assay type: cell-based; conditions: Homo sapiens, HepG2, 72 h; Hep G2, Liver, 3 days; read-out: IC50 (cell growth inhibition)
Protocol: as §1, §4
as §5, with “control. […]” for “control.”

PANC-1 = assay: Cell proliferation assay (MTS or SRB), PANC-1; assay type: cell-based; conditions: Homo sapiens, 72 h; PANC-1, Pancreatic, 3 days; read-out: IC50 (cell growth inhibition)
Protocol: as §1, §4
as §5, with “control. […]” for “control.”

SiHa = assay: Cell proliferation assay (MTS or SRB), SiHa; assay type: cell-based, human; conditions: Homo sapiens, 72 h, Cervical, 3 days, read-out: IC50 (cell growth inhibition)
Protocol: as §1, §4
as §5, with “control. […]” for “control.”

H460 = assay: Cell proliferation assay (MTS or SRB), H460; assay type: cell-based; conditions: Homo sapiens, NCI-H460, 72 h; H460, Lung, 3 days; read-out: IC50 (cell growth inhibition)
Protocol: as §1, §4
as §5, with “control. […]” for “control.”

A549 = assay: Cell proliferation assay (MTS or SRB), A549; assay type: cell-based; conditions: Homo sapiens, 72 h; A549, Lung, 3 days; read-out: IC50 (cell growth inhibition)
Protocol: as §1, §4
as §5, with “control. […]” for “control.”

SK-OV-3 = assay: Cell proliferation assay (MTS or SRB), SK-OV-3; assay type: cell-based, human; conditions: Homo sapiens, 72 h; SK-OV-3, Ovarian, 3 days; read-out: IC50 (cell growth inhibition)
Protocol: as §1, §4
as §5, with “control. […]” for “control.”

Caki-1 = assay: Cell proliferation assay (MTS or SRB), Caki-1; assay type: cell-based; conditions: Homo sapiens, 72 h; Caki-1, Kidney, 3 days; read-out: IC50 (cell growth inhibition)
Protocol: as §1, §4
as §5, with “control. […]” for “control.”

BK virus = assay: Antiviral activity against BK virus in RPTEC cells (viral DNA by qPCR, 5 days); assay type: cell-based; conditions: for EC50: Betapolyomavirus hominis, RPTEC, RPTEC cells
Protocol: In order to test the activity of CMX001 to inhibit replication of BK virus, stocks of BK virus were prepared in HFF cells and dilutions of the virus stocks were used to infect primary human renal tubular epithelial cells (RPTECs). CMX001 were then added to the wells containing the infected cells and the plates were incubated for 5 days. Total DNA was prepared from the plates and viral DNA was quantified by qPCR.

MCF-7 = assay: Cell proliferation assay (MTS or SRB), MCF-7; assay type: cell-based; conditions: Homo sapiens, MCF7, 72 h; MCF-7, Breast, 3 days; read-out: IC50 (cell growth inhibition)
Protocol: as §1, §4
as §5, with “control. […]” for “control.”

CCCCCCCCCCCCCCCCOCCCOP(=O)(O)CO[C@H](CO)Cn1ccc(N)nc1=O [CMX001]
IC50 (THLE-3): 7 µM | IC50 (HCT-116): 20.9 µM | IC50 (MIA PaCa-2): 14.6 µM | IC50 (SK-MEL-2): 70.5 µM | IC50 (DU 145): 19 µM | IC50 (SW 780): 10 µM | IC50 (OVCAR-3): 73.3 µM | IC50 (Het-1A): 20.5 µM | IC50 (C33A): 14.3 µM | IC50 (Hep G2): 37.9 µM | IC50 (PANC-1): 91.5 µM | IC50 (SiHa): 43.1 µM | IC50 (H460): 12.4 µM | IC50 (A549): > 100 µM | IC50 (SK-OV-3): 95.5 µM | IC50 (Caki-1): 68.6 µM | EC50 (BK virus; virus dilution 1:10): 0.016 µM | EC50 (BK virus; virus dilution 1:50): 0.0035 µM | EC50 (BK virus; virus dilution 1:100): 0.0037 µM | activity against BK virus replication (BK virus; RPTECs, in words): good activity | IC50 (MCF-7): 62 µM

Nc1ccn(C[C@@H](CO)OCP(=O)(O)O)c(=O)n1 [cidofovir]
IC50 (THLE-3): > 100 µM | IC50 (HCT-116): > 100 µM | IC50 (MIA PaCa-2): > 100 µM | IC50 (SK-MEL-2): > 100 µM | IC50 (DU 145): > 100 µM | IC50 (SW 780): > 100 µM | IC50 (OVCAR-3): > 100 µM | IC50 (Het-1A): > 100 µM | IC50 (C33A): 96.7 µM | IC50 (Hep G2): > 100 µM | IC50 (PANC-1): > 100 µM | IC50 (SiHa): 100 µM | IC50 (H460): > 100 µM | IC50 (A549): > 100 µM | IC50 (SK-OV-3): > 100 µM | IC50 (Caki-1): > 100 µM | EC50 (BK virus; virus dilution 1:10, read-out: EC50): 2 µM | EC50 (BK virus; virus dilution 1:50, read-out: EC50): 0.65 µM | EC50 (BK virus; virus dilution 1:100, read-out: EC50): 0.44 µM | IC50 (MCF-7): > 100 µM
